The subject of assay [1] is NF-κB pathway in THP-1 dual cells. Kind of assay: THP-1 Dual reporter assay, NF-κB pathway (SEAP). Type of assay: cell-based. As to conditions: Homo sapiens, THP1-Dual; 18 h stimulation, absorbance; read-out: THP1 Dual EC50 (μM) NFkB. The essentials: (§1)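 THP-1 dual reporter cells stimulated 18 h with STING agonist; culture medium then sampled. IRF activity read as ISG54/ISRE-driven luciferase luminescence; NF-κB activity read as SEAP absorbance at 630 nm (or 655 nm) after 2 h (or 1 h) at 37° C with detection medium.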
(In general: A reporter such as luciferase makes a cellular process visible.)

The subject of the next assay is CT26 cells. Kind of assay: CT26 re-challenge study of mice with complete responses. Type of assay: in vivo, Balb/C mice. As to the method:
Mice with complete responses were subjected to a re-challenge study. CT26 cells were injected into the flank opposite to an original site of inoculation. Naïve mice were included into the re-challenge study as a control of the tumor growth kinetics.

In assay [2] the test system is interferon regulatory factor (IRF) pathway in THP-1 dual cells. Kind of assay: THP-1 Dual reporter assay, IRF pathway (luciferase). Type of assay: cell-based. Particulars: Homo sapiens, THP1-Dual; 18 h stimulation, luminescence. The essentials: as §1
The target of a further assay is human STING (Homo sapiens, UniProt Q86WV6). The assay is described as follows: Fluorescence Thermal Shift assay (hSTING FTS binding assay). As to conditions: STING 0.1 mg/ml, 20 min preincubation, SyproOrange. Summed up:
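STING protein (final 0.1 mg/ml) preincubated 20 min with compound in 50 mM Hepes, 150 mM NaCl, pH 7.5, then SyproOrange dye added. Thermal unfolding monitored by fluorescence from 25 to 99° C. at a continuous ramp of 0.033° C./s.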

Assay [3] deals with CT26 murine colon carcinoma allografts. Kind of assay: In vivo anti-tumor efficacy in CT26 allografts. Details: species or system female Balb/C mice. Particulars: for efficacy of dose: once every fifth day x3, 10% Captisol in PBS. On the procedure:
The efficacy of Example 1 was evaluated in established CT26 murine colon carcinoma allografts in female Balb/C mice. Example 1 was formulated in 10% Captisol in PBS and administered intravenously, once every fifth day on three occasions. The solution was prepared fresh prior to each administration. […] In both treatment groups tumor growth delay was observed when compared to the control group. By the end of the study, on day 42, there were 3 and 6 complete responses recorded for mice treated at 2 and 3 mg/kg E5Dx3, respectively.

Here are results for eight compounds from patent US12344606B2, “Next-generation modulators of stimulator of interferon genes (STING)” (RYVU THERAPEUTICS S.A., priority 2019, dated 2025).

For orientation: EC50 means the concentration needed to bring the measured effect to its halfway point.

human STING, sequence (Q86WV6 whole entry H232R): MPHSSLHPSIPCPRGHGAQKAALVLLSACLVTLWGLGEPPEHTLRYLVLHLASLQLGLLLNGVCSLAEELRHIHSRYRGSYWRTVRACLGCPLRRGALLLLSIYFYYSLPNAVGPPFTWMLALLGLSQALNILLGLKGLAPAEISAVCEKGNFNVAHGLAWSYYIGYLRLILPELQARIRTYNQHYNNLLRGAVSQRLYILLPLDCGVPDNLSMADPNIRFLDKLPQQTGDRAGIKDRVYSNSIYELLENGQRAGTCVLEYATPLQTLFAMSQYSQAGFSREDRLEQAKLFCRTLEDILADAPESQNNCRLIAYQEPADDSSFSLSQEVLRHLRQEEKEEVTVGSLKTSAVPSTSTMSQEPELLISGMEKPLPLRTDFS

In the case of `COc1cc(CN(Cc2cn(C)c3ccccc3c2=O)[C@H]2CCCN(c3cccnc3)C2)ccn1` [Example 1, 3-({[(2-methoxypyridin-4-yl)methyl][(3S)-1-(pyridin-3-yl)piperidin-3-yl]amino}methyl)-1-methyl-1,4-dihydroquinolin-4-one], the EC50 in assay [1] and in assay [2] was at most 1 µM in each case. For the same compound, the “mice that developed tumors on re-challenge” value was “two of them developed a tumor” in the assay with CT26 cells (six mice with complete responses dosed previously at 3 mg/kg, substantial delay in tumor growth) and “none of them developed tumors” with CT26 cells (three mice with complete responses dosed previously at 2 mg/kg). Further, at human STING, the “hSTING FTS binding assay (ΔT C.°)” value is “++ (ΔTm>10° C.)”. The “TGI (tumor growth inhibition)” value in assay [3] (2 mg/kg E5Dx3, 11th day) worked out at 52%; in assay [3] (3 mg/kg E5Dx3, 11th day), 80%. For the same compound, the “complete responses (number of mice)” value in assay [3] (2 mg/kg E5Dx3, day 42) was determined as 3; in assay [3] (3 mg/kg E5Dx3, day 42), 6. The “efficacy of dose” value is “moderately efficacious dose” in assay [3] (2 mg/kg i.v.) and “full efficacious dose” in assay [3] (3 mg/kg i.v.).

In the case of `Cc1cc(CN(Cc2cn(C)c3cc(N4CCN(C)CC4)ccc3c2=O)[C@H]2CCCN(c3cccnc3)C2)ccn1` [Example 18, 1-methyl-7-(4-methylpiperazin-1-yl)-3-({[(2-methylpyridin-4-yl)methyl][(3S)-1-(pyridin-3-yl)piperidin-3-yl]amino}methyl)-1,4-dihydroquinolin-4-one], the EC50 in assay [1] and in assay [2] was at most 1 µM in each case. Also, on human STING, the “hSTING FTS binding assay (ΔT C.°)” value is on record as “++ (ΔTm>10° C.)”.

On to `Cc1ccc(N2CCC[C@H](N(Cc3ccnc(C)c3)Cc3cn(C4CC4)c4cc(O)c(F)cc4c3=O)C2)cn1` [Example 59, 1-cyclopropyl-6-fluoro-7-hydroxy-3-({[(3S)-1-(6-methylpyridin-3-yl)piperidin-3-yl][(2-methylpyridin-4-yl)methyl]amino}methyl)-1,4-dihydroquinolin-4-one], for which the values for the EC50 in assay [1] and in assay [2] were 1 to 10 µM and at most 1 µM, respectively. The “hSTING FTS binding assay (ΔT C.°)” value on human STING is “++ (ΔTm>10° C.)”.

Consider `Cc1cc(CN(Cc2cn(C3CC3)c3cc(N4CCN(C)CC4)c(F)cc3c2=O)[C@H]2CCCN(c3cccnc3)C2)ccn1` [Example 10, 1-cyclopropyl-6-fluoro-7-(4-methylpiperazin-1-yl)-3-({[(2-methylpyridin-4-yl)methyl][(3S)-1-(pyridin-3-yl)piperidin-3-yl]amino}methyl)-1,4-dihydroquinolin-4-one], for which the EC50 in assay [1] and in assay [2] was at most 1 µM each time. Moreover, at human STING, the “hSTING FTS binding assay (ΔT C.°)” value was “++ (ΔTm>10° C.)”.

On to `Cc1cc(CN(Cc2cn(C)c3ccccc3c2=O)[C@H]2CCCN(c3ccncc3Br)C2)ccn1` [Example 15, 3-({[(3S)-1-(3-bromopyridin-4-yl)piperidin-3-yl][(2-methylpyridin-4-yl)methyl]amino}methyl)-1-methyl-1,4-dihydroquinolin-4-one], for which the EC50 in assay [1] and in assay [2] was 1 to 10 µM throughout. For the same compound, the “hSTING FTS binding assay (ΔT C.°)” value at human STING is given as “+ (ΔTm<10° C.)”.

On to `Cc1cc(CN(Cc2cn(C)c3ccccc3c2=O)[C@@H]2CN(c3cccnc3)CC[C@H]2O)ccn1` [Example 24, 3-({[(3R,4R)-4-hydroxy-1-(pyridin-3-yl)piperidin-3-yl][(2-methylpyridin-4-yl)methyl]amino}methyl)-1-methyl-1,4-dihydroquinolin-4-one], for which the EC50 in assay [1] and in assay [2] was at least 10 µM in each case. For the same compound, the “hSTING FTS binding assay (ΔT C.°)” value at human STING is on record as “+ (ΔTm<10° C.)”.

In the case of `Cc1cc(CN(Cc2cn(C)c3ccccc3c2=O)[C@H]2C[C@H](F)CN(c3cccnc3)C2)ccn1` [Example 26, 3-({[(3S,5S)-5-fluoro-1-(pyridin-3-yl)piperidin-3-yl][(2-methylpyridin-4-yl)methyl]amino}methyl)-1-methyl-1,4-dihydroquinolin-4-one], the EC50 in assay [1] and in assay [2] was at most 1 µM each time. Besides, the “hSTING FTS binding assay (ΔT C.°)” value on human STING is reported as “++ (ΔTm>10° C.)”.

Consider `Cc1cc(CN(Cc2cn(C)c3ccccc3c2=O)[C@H]2CCCN(c3cccnc3)C2)ccn1` [Example 5, 1-methyl-3-({[(2-methylpyridin-4-yl)methyl][(3S)-1-(pyridin-3-yl)piperidin-3-yl]amino}methyl)-1,4-dihydroquinolin-4-one], for which the EC50 in assay [1] and in assay [2] was at most 1 µM in each case. Further, the “hSTING FTS binding assay (ΔT C.°)” value on human STING is listed as “++ (ΔTm>10° C.)”.
